US20030096237A1, “Determination of the ability of patients to respond to a tumor treatment” (priority 2000, published 2003)

Tested on: CNCM I-2546
Assay: oligonucleotide array analysis of IFN-α modulated gene expression
Format: cell-based, human
Design: key to nAD M94880 mhc class i (hla-a*8001): normalized average difference between perfect and mismatch probeset signals
Experimental: All these cell lines were cultured in RPMI medium supplemented with 10% FCS, glutamine (2 mM), sodium pyruvate (1 mM), non-essential amino acids and HEPES buffer (10 mM) (all from GIBCO Life Sciences, Paisley, UK). When confluent, the cells were passaged by trypsinization.
Cultured melanoma cells were harvested by scraping and total cellular RNA was extracted. 10 μg from each sample were used directly as templates for cDNA synthesis using a commercial kit (Roche Molecular Biochemicals, Rotkreuz, Switzerland). The T7 promoter sequence incorporated into the cDNA synthesis primer allowed template amplification and biotin labeling by in vitro transcription using a commercial kit (Affymetrix, Santa Clara, Calif.). After alkaline heat fragmentation […] was hybridised to the array (Affymetrix, Santa Clara, Calif.) and all subsequent steps were performed following standard procedures as supplied with the arrays. Raw data were collected with a confocal laser scanner (Hewlett Packard, Palo Alto, Calif.) using GeneChip software v3.1 (Affymetrix, Santa Clara, Calif.).
Raw data were normalized based on the total chip signal obtained upon hybridisation of ME15 cell line cDNA. This array was selected because: i) the 5′/3′ intensity ratio of control genes was smaller than 3; ii)>25% of the genes are called “present” by Genechip; iii) the image appearance is homogeneous with low background and no sign of mechanical chip damage.
The normalized average difference (nAD) between the signals of the perfect and of the mismatch probesets for each gene was used as the expression level of a given gene. At least one nAD value in a pairwise comparison of data has to exceed 50 to be included. Based on nAD, change factors related to IFN-α exposure were also calculated. Negative nAD values were set to 20 in order to avoid the calculation of artificially high modifications. In order to exclude artefacts, only genes with robust change factors, greater than 2-fold, were included in the analysis. […] Genes were clustered according to their mode of regulation.
Total cellular RNA was extracted from the sensitive and resistant melanoma cell lines identified above, reverse transcribed and processed for hybridization to an oligonucleotide array (Hu6800FL, PN 900183) containing probe sets derived from 7000 full-length human genes. Expression levels for each gene were calculated as normalized average difference (nAD, see materials and methods).
Patterns of genes expressed in IFN-α sensitive and resistant melanoma cell lines were investigated upon 48 hour culture in the presence of IFN-α. CNCM I-2546 and CNCM I-2545 were studied in detail.
In Table 2 below, CNCM I-2546 and CNCM I-2545 cultured for 48 hours in the absence or in the presence of 100 U/ml IFN-α were used to assay cytokine modulated gene expression as matched with data obtained in fibrosarcoma cells. This analysis yielded six clusters of genes. […] Data are presented as average difference of signal intensity between match and mismatch probesets.
In Table 3 below, CNCM I-2546 and CNCM I-2545 cell lines cultured for 48 hours in the absence or in the presence of 100 U/ml IFN-α were used to identify novel cytokine induced genes whose expression was not found to be modulated in fibrosarcoma cells. Cluster 1 includes genes inducible in the CNCM I-2546 sensitive but not in the CNCM I-2545 resistant cell line. Cluster 2 comprises genes inducible in both lines. Data are presented as average difference of signal intensity between match and mismatch probesets.

[1] = CNCM I-2546 (+) IFN-α 100 U/ml 48 hours, (−) 0
[2] = CNCM I-2546 (+) IFN-α 100 U/ml 48 hours, (−) 24
[3] = CNCM I-2546 (+) IFN-α 100 U/ml 48 hours, (−) 43
[4] = CNCM I-2546 (+) IFN-α 100 U/ml 48 hours, (−) 55
[5] = CNCM I-2546 (+) IFN-α 100 U/ml 48 hours, (−) 77
[6] = CNCM I-2546 (+) IFN-α 100 U/ml 48 hours, (−) 107
[7] = CNCM I-2546 (+) IFN-α 100 U/ml 48 hours, (−) 110
[8] = CNCM I-2546 (+) IFN-α 100 U/ml 48 hours, (−) 150

Substance: IFN-α
- nAD L37043 casein kinase i epsilon [1]: 441
- nAD L40387 thyroid receptor interactor (trip14) [1]: 85
- nAD U51127 interferon regulatory factor 5 (CNCM I-2546 (+) IFN-α 100 U/ml 48 hours, (−) 3): 116
- nAD Z56281 interferon regulatory factor 3 (CNCM I-2546 (+) IFN-α 100 U/ml 48 hours, (−) 12): 136
- nAD M98343 amplaxin (ems1) (CNCM I-2546 (+) IFN-α 100 U/ml 48 hours, (−) 15): 141
- nAD J03909 gamma-interferon-inducible protein (ip-30) (CNCM I-2546 (+) IFN-α 100 U/ml 48 hours, (−) 18): 57
- nAD D32050 alanyl-trna synthetase (CNCM I-2546 (+) IFN-α 100 U/ml 48 hours, (−) 21): 427
- nAD M60784 ul snrnp-specific protein [2]: 216
- nAD X57351 1-8d gene from interferon-inducible gene family [2]: 297
- nAD D28137 bst-2 (CNCM I-2546 (+) IFN-α 100 U/ml 48 hours, (−) 28): 305
- nAD S81914 iex-1 = radiation-inducible immediate-early gene (CNCM I-2546 (+) IFN-α 100 U/ml 48 hours, (−) 31): 312
- nAD X96401 rox protein (CNCM I-2546 (+) IFN-α 100 U/ml 48 hours, (−) 34): 143
- nAD M79462 pml-1 [3]: 1
- nAD U22970 16-jun gene, interferon-inducible peptide (6-16) [3]: 2363
- nAD L42243 ifnar2 gene (interferon receptor) (CNCM I-2546 (+) IFN-α 100 U/ml 48 hours, (−) 46): −4
- nAD U52513 rig-g (CNCM I-2546 (+) IFN-α 100 U/ml 48 hours, (−) 49): 96
- nAD K01900 lymphocyte interferon alpha type 201 [4]: 85
- nAD M19650 2′,3′-cyclic nucleotide 3prime-phosphodiesterase [4]: 269
- nAD X95325 dna binding protein a variant (CNCM I-2546 (+) IFN-α 100 U/ml 48 hours, (−) 58): 375
- nAD X15949 interferon regulatory factor-2 (irf-2) (CNCM I-2546 (+) IFN-α 100 U/ml 48 hours, (−) 67): 11
- nAD Z26491 gene catechol o-methyltransferase (CNCM I-2546 (+) IFN-α 100 U/ml 48 hours, (−) 73): 337
- nAD U69126 fuse binding protein 2 (fbp2) [5]: 302
- nAD X76538 mpv17 [5]: 313
- nAD U50327 protein kinase c substrate 80k-h gene (prkcsh) (CNCM I-2546 (+) IFN-α 100 U/ml 48 hours, (−) 80): 312
- nAD U09579 melanoma differentiation associated (mda-6) (CNCM I-2546 (+) IFN-α 100 U/ml 48 hours, (−) 83): 361
- nAD U70063 human acid ceramidase (CNCM I-2546 (+) IFN-α 100 U/ml 48 hours, (−) 86): 221
- nAD Y00264 amyloid a4 precursor (CNCM I-2546 (+) IFN-α 100 U/ml 48 hours, (−) 89): 304
- nAD L35249 vacuolar h + -atpase mr 56,000 subunit (ho57) (CNCM I-2546 (+) IFN-α 100 U/ml 48 hours, (−) 92): 227
- nAD U41515 dss1 (CNCM I-2546 (+) IFN-α 100 U/ml 48 hours, (−) 104): 51
- nAD U18018 ela enhancer binding protein (ela-f) [6]: 340
- nAD X04412 plasma gelsolin [6]: 372
- nAD D50914 EST [7]: 359
- nAD U65579 mitochondrial nadh dehydrogenase-ubiquinone [7]: 377
- nAD U72206 guanine nucleotide regulatory factor (lfp40) (CNCM I-2546 (+) IFN-α 100 U/ml 48 hours, (−) 113): 459
- nAD D78132 rheb gene, ras-related gtp binding protein gene (CNCM I-2546 (+) IFN-α 100 U/ml 48 hours, (−) 119): 307
- nAD X70848 protein phosphatase 1, catalytic subunit (CNCM I-2546 (+) IFN-α 100 U/ml 48 hours, (−) 122): 370
- nAD M31013 nonmuscle myosin heavy chain (nmhc) (CNCM I-2546 (+) IFN-α 100 U/ml 48 hours, (−) 132): 441
- nAD J00212 leukocyte interferon (ifn-alpha) (CNCM I-2546 (+) IFN-α 100 U/ml 48 hours, (−) 138): 49
- nAD U91316 acyl-coa thioester hydrolase (CNCM I-2546 (+) IFN-α 100 U/ml 48 hours, (−) 141): 706
- nAD D49824 hla-b null allele (CNCM I-2546 (+) IFN-α 100 U/ml 48 hours, (−) 144): 925
- nAD HG2917 major histocompatibility complex, class i, e (CNCM I-2546 (+) IFN-α 100 U/ml 48 hours, (−) 147): 813
- nAD D21235 hhr23a protein [8]: 582
- nAD U61263 acetolactate synthase homolog [8]: 464
- nAD M65028 heterogeneous nuclear ribonucleoprotein a/b (CNCM I-2546 (+) IFN-α 100 U/ml 48 hours, (−) 153): 326
- nAD HG658 major histocompatibility complex, class 1 c (CNCM I-2546 (+) IFN-α 100 U/ml 48 hours, (−) 156): 1692
- nAD J04182 lysosomal membrane glycoprotein-1 (lamp1) (CNCM I-2546 (+) IFN-α 100 U/ml 48 hours, (−) 168): 452
- nAD L07633 interferon-gamma (CNCM I-2546 (+) IFN-α 100 U/ml 48 hours, (−) 184): 463
- nAD U18009 chromosome 17q21 clone lf113 (CNCM I-2546 (+) IFN-α 100 U/ml 48 hours, (−) 187): 735
- nAD U47025 fetal brain glycogen phosphorylase b (CNCM I-2546 (+) IFN-α 100 U/ml 48 hours, (−) 193): 924
- nAD M94880 mhc class i (hla-a*8001) (CNCM I-2546 (+) IFN-α 100 U/ml 48 hours, (−) 202): 932
- nAD J00105 beta-2 microglobulin gene (CNCM I-2546 (+) IFN-α 100 U/ml 48 hours, (−) 248): 1453
- nAD Z47055 farnesyl pyrophosphate synthetase like (CNCM I-2546 (+) IFN-α 100 U/ml 48 hours, (−) 263): 529
- nAD U78525 human eukaryotic translation initiation factor (eif3) (CNCM I-2546 (+) IFN-α 100 U/ml 48 hours, (−) 275): 589
- nAD U65932 extracellular matrix protein 1 (ecm1) (CNCM I-2546 (+) IFN-α 100 U/ml 48 hours, (−) 300): 907
- nAD J04444 cytochrome c-1 gene (CNCM I-2546 (+) IFN-α 100 U/ml 48 hours, (−) 309): 1286
- nAD HG1612 macmarcks (CNCM I-2546 (+) IFN-α 100 U/ml 48 hours, (−) 401): 1440
- nAD X90846 mixed lineage kinase 2 (CNCM I-2546 (+) IFN-α 100 U/ml 48 hours, (−) 425): 173
- nAD M34338 spermidine synthase (CNCM I-2546 (+) IFN-α 100 U/ml 48 hours, (−) 429): 1413
- nAD L13210 mac-2 binding protein (CNCM I-2546 (+) IFN-α 100 U/ml 48 hours, (−) 444): 2016
- nAD K03515 neuroleukin (CNCM I-2546 (+) IFN-α 100 U/ml 48 hours, (−) 487): 2126
- nAD M30818 interferon-induced cellular resistance mediator protein (CNCM I-2546 (+) IFN-α 100 U/ml 48 hours, (−) 756): 155
- nAD U72882 interferon-induced leucine zipper protein (ifp35) (CNCM I-2546 (+) IFN-α 100 U/ml 48 hours, (−) −9): 502
- nAD U53830 interferon regulatory factor 7a (CNCM I-2546 (+) IFN-α 100 U/ml 48 hours, (−) −31): 237
- nAD M97935 transcription factor isgf-3 (CNCM I-2546 (+) IFN-α 100 U/ml 48 hours, (−) −37): 296
- nAD X57522 ring4 cdna (CNCM I-2546 (+) IFN-α 100 U/ml 48 hours, (−) −49): 97
- nAD X07730 prostate specific antigen (CNCM I-2546 (+) IFN-α 100 U/ml 48 hours, (−) −64): 132
- nAD U50648 interferon-inducible rna-dependent protein kinase (pkr) (CNCM I-2546 (+) IFN-α 100 U/ml 48 hours, (−) −70): 71
- nAD U01824 glutamate/aspartate transporter (CNCM I-2546 (+) IFN-α 100 U/ml 48 hours, (−) −73): 91
- nAD J04164 interferon-inducible protein 27-sep (CNCM I-2546 (+) IFN-α 100 U/ml 48 hours, (−) −89): 2066
- nAD M92642 alpha-1 type xvi collagen (col16a1) (CNCM I-2546 (+) IFN-α 100 U/ml 48 hours, (−) −147): −133
- nAD M13755 interferon-induced 17-kda/15-kda protein (CNCM I-2546 (+) IFN-α 100 U/ml 48 hours, (−) −181): 716
- nAD X67325 p27 (CNCM I-2546 (+) IFN-α 100 U/ml 48 hours, (−) −211): 410
- change factor (CF) D21235 hhr23a protein (CNCM I-2546, IFN-α 100 U/ml 48 hours): 2.88
